The term IC50 denotes the concentration needed to halve the response being measured.

This is an account of results in paper PMC10674160, “Synthesis and Preclinical Evaluation of Radiolabeled [^103Ru]BOLD-100” (Pharmaceutics, 2023).

SMILES strings stand for the structures.

Details of data set [1]: method as in PMID 28848672. As to conditions: phase I clinical study; cited from earlier work.
A further data set has as its system HCT116 cells. Nature of the data set: MTT cytotoxicity assay, 96 h exposure. The class given is cell-based, human. Particulars: exposure time 96 h, mean ± SD. Here is the method: (§1) The murine cancer cell line CT26 and the human cancer cell line HCT116 were both obtained from the American Type Culture Collection (ATCC). Both cell lines were grown as adherent monolayer cultures in 75 cm^2 culture flasks in RPMI 1640 medium (supplemented with 2 mM L-glutamine and 1% PenStrep, Gibco^TM) and 10% fetal bovine serum (FBS, Gibco^TM) at 37 °C under a humid atmosphere containing 5% CO2 and 95% air. For splitting, accutase® solution (Sigma Aldrich) was used.
(§2) Cell viability was determined by the colorimetric MTT assay. The cells were seeded in RPMI 1640 medium in a 96-well cell culture plate 24 h prior to treatment at a density of 1.5 × 10^3 (CT26) and 2 × 10^3 (HCT116) cells per well. A stock solution of compounds 3a and 3b was prepared in DMSO and then diluted with RPMI 1640 medium (maximum 0.5% v/v of DMSO per well). After serial dilutions, a 100 µL aliquot was added to each well ([…], 6.25, 3.13 µmol/L per well). […] Optical densities were measured at 490 nm with a Synergy^TM HTX Multi-Mode Reader (BioTek, Winooski, VT, USA), using a reference wavelength of 650 nm to correct for unspecific absorption. Concentration–effect curves were calculated relative to untreated controls. […]
(Formazan colour is commonly taken as a measure of viable cells.)

The test system of a further data set is CT26 cells. Nature of the data set: MTT cytotoxicity assay, 96 h exposure. The class given is cell-based, murine. Particulars: exposure time 96 h, mean ± SD. How it is done: as §1, §2

For `[Cl][Ru-]([Cl])([Cl])[Cl].[Na+].c1ccc2[nH]ncc2c1.c1ccc2[nH]ncc2c1` [3a, sodium trans-[tetrachloridobis(indazole)ruthenate(III)]], the maximum tolerated dose in data set [1] is 625 mg/m^2. Further, the figures for the half-maximal inhibitory concentration (IC50) in the data set on HCT116 cells and in the data set with CT26 cells were 99.4 ± 14.5 µM and 188 ± 17.8 µM, respectively.
`[Cl][Ru]([Cl])([Cl])[Cl].[Na+].c1ccc2[nH]ncc2c1.c1ccc2[nH]ncc2c1` [3b, [^103Ru]sodium trans-[tetrachloridobis(indazole)ruthenate(III)]]: the IC50 with HCT116 cells was determined as 94.7 ± 11.7 µM; with CT26 cells it was 173 ± 15.1 µM.
